In this series the test system is patients with moderate to severe postoperative pain following bunionectomy surgery. The experiment in a line: Three double blind, randomized clinical studies (007, 008, 021): oxygen desaturation (SpO2<90%) by pulse oximetry during 48 hour treatment. The following applies: for median number of episodes of SpO2<90%: patients who experienced oxygen desaturation. How it is done:
Oxygen saturation was measured continuously during baseline and the 48 hour treatment periods using pulse oximetry. The total number and percentage of patients with oxygen desaturation (SpO2<90%) were recorded at: 0, 15, 30 and 45 minutes, and 1, 2, 3, 4, 5, 6 and 8 hours after study drug administration; at the time of administration of subsequent doses of study medication; at the time of administration of supplemental analgesic medication; 1 hour after administration of study medication; and whenever a desaturation occurred during the dosing period.
Respiration rate (<10 breaths/min, 10-12 breaths/min, >12 breaths/min) was summarized at the same time points as the SpO2 recordings. Cumulative MED was determined at the time of the first episode of SpO2<90%. All desaturations and use of supplemental oxygenation, use of narcotic antagonists against respiratory impairment, and respiratory related serious adverse events (SAEs) were recorded.
In subjects with oxygen desaturation the following data was recorded: cumulative MED at first desaturation; mean desaturation values; number of desaturation episodes; and total duration of desaturation episodes.
Some patients in the three clinical studies were enrolled who resided near study sites that are located at an altitude of about or over 4000 feet above sea level.

As for `COc1ccc2c3c1O[C@H]1C(=O)CC[C@@]4(O)[C@@H](C2)N(C)CC[C@]314.Cl` [oxycodone, oxycodone hydrochloride], the “median number of episodes of SpO2<90%” value stood at 2.0. Besides, for the setting “12 mg MED, lower elevation / non-high altitude sites”, the “incidence of desaturation (SpO2<90%)” value came to 1.6%. For the same molecule, the “cumulative dose before experiencing an oxygen desaturation event (SpO2<90%)” value (cumulative MED at first desaturation) is reported as 24 mg. In addition, for the setting “morphine or oxycodone alone”, the “incidence of desaturation at high elevation site compared to lower sites” value is “ten-fold greater”.

On to `CN1CC[C@]23c4c5ccc(O)c4O[C@H]2[C@@H](O)C=C[C@H]3[C@H]1C5.O=S(=O)(O)O` [morphine, morphine sulfate], for which the “median number of episodes of SpO2<90%” value turned out to be 2.0.

For the origin of these results see patent publication US20120283283A1, “METHODS FOR DETECTING ENHANCED RISK OF OPIOID-INDUCED HYPOXIA IN A PATIENT” (priority 2011, published 2012).
